Test results from patent US20050239784A1 (priority 2002, published 2005).
In brackets after ≈: the same amount, converted by molar mass. Where two headings read alike, the source gives them in different places.

Tests used:
AKT3 [1] = target: T1, AKT3 (Homo sapiens, UniProt Q9Y243); assay: cell-based
Target sequence in this assay (Q9Y243 whole entry): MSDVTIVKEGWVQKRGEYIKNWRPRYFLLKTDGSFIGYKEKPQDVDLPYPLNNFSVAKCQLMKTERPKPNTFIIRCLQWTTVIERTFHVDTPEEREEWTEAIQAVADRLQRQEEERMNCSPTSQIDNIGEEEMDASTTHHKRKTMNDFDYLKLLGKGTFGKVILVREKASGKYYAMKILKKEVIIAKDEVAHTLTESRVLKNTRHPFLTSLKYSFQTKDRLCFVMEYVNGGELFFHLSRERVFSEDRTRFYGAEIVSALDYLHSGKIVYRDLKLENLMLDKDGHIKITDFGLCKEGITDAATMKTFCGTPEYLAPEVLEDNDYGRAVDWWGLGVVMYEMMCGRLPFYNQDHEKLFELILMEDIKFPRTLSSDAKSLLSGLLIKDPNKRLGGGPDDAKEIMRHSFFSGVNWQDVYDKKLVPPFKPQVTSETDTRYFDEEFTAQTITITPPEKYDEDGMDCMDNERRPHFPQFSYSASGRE

CDK4 = CDK4 (Homo sapiens, UniProt P11802); assay: biochemical
AKT3 [2] = target: T1, AKT3; assay: biochemical
Target sequence in this assay (Q9Y243 whole entry, species assumed): as the sequence (Q9Y243 whole entry) above

CDC25B = target: T2, CDC25B (Homo sapiens, UniProt P30305); assay: biochemical
T2 sequence (P30305 1-580): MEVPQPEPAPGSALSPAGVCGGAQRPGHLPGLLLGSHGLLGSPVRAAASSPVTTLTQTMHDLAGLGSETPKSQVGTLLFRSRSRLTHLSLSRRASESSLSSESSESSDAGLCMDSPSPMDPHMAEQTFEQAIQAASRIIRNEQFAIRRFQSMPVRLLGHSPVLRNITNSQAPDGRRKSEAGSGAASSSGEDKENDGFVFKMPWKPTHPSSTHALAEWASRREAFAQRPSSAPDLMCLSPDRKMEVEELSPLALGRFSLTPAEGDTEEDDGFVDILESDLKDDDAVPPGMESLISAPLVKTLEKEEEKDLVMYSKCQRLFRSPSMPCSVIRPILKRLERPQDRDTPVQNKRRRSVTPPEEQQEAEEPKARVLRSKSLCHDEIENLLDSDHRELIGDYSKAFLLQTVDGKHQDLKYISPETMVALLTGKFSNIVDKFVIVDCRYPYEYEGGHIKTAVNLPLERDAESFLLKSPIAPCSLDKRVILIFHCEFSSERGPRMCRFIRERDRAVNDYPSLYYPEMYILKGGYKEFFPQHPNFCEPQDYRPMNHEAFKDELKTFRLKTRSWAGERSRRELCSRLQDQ

A2780 cells = assay: Cytotox survival of A2780 cells after 3 days; format: cell-based; conditions: for IC50: Homo sapiens, A2780, 72 h
Description: In an alternative assay, the growth inhibitory effect of the compounds was tested on the ovarian carcinoma cell line A2780 using art known cytotoxicity assays such as LIVE/DEAD (Molecular Probes) MTT.

physchem = conditions: pH 7.4, aqueous buffer, kinetic from dmso stock
[3] = read-out: AKT cel (Ex. C.6): pIC50 values (converted)
[4] = read-out: CDK4 SPA (Ex. C.1): pIC50 values (converted)
[5] = read-out: AKT3 pep. (Ex. C.3): pIC50 values (converted)
[6] = read-out: CDC25B WT (Ex. C.5): pIC50 values (converted)
[7] = read-out: Cytotox survival of A2780 cells after 3 days - pIC50 values, A2780 cells, 3 days (converted)
[8] = AKT cel (Ex. C.6): pIC50 values, MDA-MB 231 cells, phosphorylated MAPK read-out
[9] = CDK4 SPA (Ex. C.1): pIC50 values
[10] = AKT3 pep. (Ex. C.3): pIC50 values
[11] = CDC25B WT (Ex. C.5): pIC50 values
[12] = A2780 cells, 3 days, read-out: Cytotox survival of A2780 cells after 3 days - pIC50 values (converted)

Sequence of CDK4 (P11802 whole entry, species assumed): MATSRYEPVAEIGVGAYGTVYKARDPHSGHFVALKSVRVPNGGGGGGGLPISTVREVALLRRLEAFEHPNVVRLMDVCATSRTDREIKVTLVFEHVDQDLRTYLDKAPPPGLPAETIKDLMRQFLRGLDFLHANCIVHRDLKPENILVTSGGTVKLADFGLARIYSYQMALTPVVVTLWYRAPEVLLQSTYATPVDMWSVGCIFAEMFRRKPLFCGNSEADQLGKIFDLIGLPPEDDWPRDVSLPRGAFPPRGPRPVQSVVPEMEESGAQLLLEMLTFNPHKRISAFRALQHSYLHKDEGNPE
Sequence of CDK4 (P24385 whole entry partner, species assumed): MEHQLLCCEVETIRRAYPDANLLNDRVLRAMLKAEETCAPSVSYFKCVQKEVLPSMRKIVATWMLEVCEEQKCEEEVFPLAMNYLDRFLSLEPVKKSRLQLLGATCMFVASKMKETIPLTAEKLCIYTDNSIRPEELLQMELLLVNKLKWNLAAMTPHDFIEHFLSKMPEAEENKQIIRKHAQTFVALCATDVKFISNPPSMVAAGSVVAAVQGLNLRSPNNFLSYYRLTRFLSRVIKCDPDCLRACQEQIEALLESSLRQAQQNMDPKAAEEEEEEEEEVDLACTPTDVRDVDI

Row | melting point | SMILES | IC50 (AKT3 [1]; [3]) | IC50 (CDK4; [4]) | IC50 (AKT3 [2]; [5]) | IC50 (CDC25B; [6]) | IC50 (A2780 cells; [7]) | solubility (physchem) | also measured
1 | 239 °C | COc1cc(-c2nc3c(=O)n(C)c(=O)nc-3n(C)n2)ccc1OCCN1CCN(C)CC1 |  |  |  |  |  |  | 
2 | 233 °C | COc1cc(-c2nc3c(=O)n(C)c(=O)nc-3n(C(C)C)n2)ccc1OCCN1CCN(C)CC1 |  |  |  |  |  |  | 
3 | > 250 °C | Cn1nc(-c2ccccc2)nc2c(=O)n(C3CCN(C(=O)OC(C)(C)C)CC3)c(=O)nc1-2 |  |  |  |  |  |  | 
4 | 216 °C | CCCC(C)n1nc(-c2ccccc2)nc2c(=O)n(C)c(=O)nc1-2 (stereo not shown) |  |  |  |  |  |  | 
5 | 215 °C | CCOC(=O)C(C)n1nc(-c2ccccc2)nc2c(=O)n(C)c(=O)nc1-2 (stereo not shown) |  |  |  |  |  |  | 
6 | 250 °C | Cn1c(=O)nc2n(C3CCN(C(=O)OC(C)(C)C)CC3)nc(-c3ccccc3)nc-2c1=O |  |  |  |  |  |  | 
7 | > 250 °C | Cn1c(=O)nc2n(C3CCNCC3)nc(-c3ccccc3)nc-2c1=O |  |  |  |  |  |  | 
8 | 187.5 to 209 °C | COc1cc(-c2nc3c(=O)n(C)c(=O)nc-3n(C3CCCC3)n2)cc(OC)c1OCCN1CCOCC1 |  |  |  |  |  |  | 
9 | 232 °C | CC(C)n1nc(-c2ccc(OCCN3CCOCC3)cc2)nc2c(=O)n(C)c(=O)nc1-2 |  |  |  |  |  |  | 
10 |  | CC(C)n1nc(-c2ccc(OCCN3CCCCC3)c(Cl)c2)nc2c(=O)n(C)c(=O)nc1-2 [Compound 88] | > 1000 nM | 267 nM | 239 nM | 25.8 nM | 168 nM | 160 to 1800 µM (≈ 73.4 to 826 µg/mL) | 
11 |  | COc1cc(-c2nc3c(=O)n(C)c(=O)nc-3n(C(C)C)n2)cc(OC)c1OCCN1CCN(C(=O)OC(C)(C)C)CC1 [Compound 89] | > 1000 nM | 506 nM | 352 nM | 35.5 nM | 527 nM | > 1800 µM | 
12 |  | CC(C)n1nc(-c2ccc(CNCCc3cccnc3)cc2)nc2c(=O)n(C)c(=O)nc1-2 [Compound 93] |  |  |  |  |  | > 1800 µM | IC50 (AKT3 [1]; [8]): > 1000 nM; IC50 (CDK4; [9]): 193 nM; IC50 (AKT3 [2]; [10]): 279 nM; IC50 (CDC25B; [11]): 49.1 nM; IC50 (A2780 cells; [12]): 272 nM
13 |  | CC(C)n1nc(-c2ccc(OCCN(C)S(=O)(=O)N(C)C)cc2)nc2c(=O)n(C)c(=O)nc1-2 [Compound 95] | > 3000 nM | 321 nM | 190 nM | 41.4 nM | 481 nM | 160 to 1800 µM (≈ 76.4 to 860 µg/mL) | 
14 |  | COc1cc(-c2nc3c(=O)n(C)c(=O)nc-3n(C(C)C)n2)cc(OC)c1OCCN1CCN(S(N)(=O)=O)CC1 [Compound 96] | > 3000 nM | 205 nM | 175 nM | 45 nM | 492 nM | > 1800 µM | 
15 |  | CC(C)n1nc(-c2ccc(OCCN3CCN(C)CC3)cc2)nc2c(=O)n(C)c(=O)nc1-2 [Compound 97] | > 3000 nM | 164 nM | 198 nM | 42.7 nM | 292 nM | > 1800 µM | 
16 |  | CC(C)n1nc(-c2ccc(CNC3CCNCC3)cc2)nc2c(=O)n(C)c(=O)nc1-2 [Compound 98] | > 3000 nM | 200 nM | 194 nM | 58.5 nM | 488 nM | > 1800 µM | 
17 |  | CC(C)n1nc(-c2ccc(CNC3CCN(S(=O)(=O)N(C)C)CC3)cc2)nc2c(=O)n(C)c(=O)nc1-2 [Compound 99] | 432 nM | 141 nM | 170 nM | 30.3 nM | 120 nM | > 1800 µM | 
18 |  | COCCNCc1ccc(-c2nc3c(=O)n(C)c(=O)nc-3n(C(C)C)n2)cc1 [Compound 100] |  |  |  |  |  | > 1800 µM | IC50 (AKT3 [1]; [8]): 407 nM; IC50 (CDK4; [9]): 157 nM; IC50 (AKT3 [2]; [10]): 178 nM; IC50 (CDC25B; [11]): 49.9 nM; IC50 (A2780 cells; [12]): 246 nM
19 |  | CC(C)n1nc(-c2ccc(OCCN)cc2)nc2c(=O)n(C)c(=O)nc1-2 [Compound 101] |  |  |  |  |  | > 1800 µM | IC50 (AKT3 [1]; [8]): 513 nM; IC50 (CDK4; [9]): 230 nM; IC50 (AKT3 [2]; [10]): 232 nM; IC50 (CDC25B; [11]): 53.5 nM; IC50 (A2780 cells; [12]): 579 nM
20 |  | CC(C)n1nc(-c2ccc(CN3CCN(S(N)(=O)=O)CC3)cc2)nc2c(=O)n(C)c(=O)nc1-2 [Compound 102] |  |  |  |  |  | > 1800 µM | IC50 (AKT3 [1]; [8]): > 3020 nM; IC50 (CDK4; [9]): 79.8 nM; IC50 (AKT3 [2]; [10]): 172 nM; IC50 (CDC25B; [11]): 36.5 nM; IC50 (A2780 cells; [12]): 912 nM
21 |  | CC(C)n1nc(-c2ccc(CN3CCN(S(=O)(=O)N(C)C)CC3)cc2)nc2c(=O)n(C)c(=O)nc1-2 [Compound 103] | > 3020 nM | 357 nM | 129 nM | 22.6 nM | 425 nM | 160 to 1800 µM (≈ 80.4 to 905 µg/mL) | 
22 |  | CC(C)n1nc(-c2ccc(OCCN3CCNCC3)c(Cl)c2)nc2c(=O)n(C)c(=O)nc1-2 [Compound 104] | 726 nM | 128 nM | 121 nM | 30.2 nM | 214 nM | > 1800 µM | 
23 |  | COc1cc(-c2nc3c(=O)n(C)c(=O)nc-3n(C(C)C)n2)cc(OC)c1OCCN(C)C1CCNCC1 [Compound 105] | > 3020 nM | 153 nM | 138 nM | 35.6 nM | < 3010 nM | > 1800 µM | 
24 |  | COc1cc(-c2nc3c(=O)n(C)c(=O)nc-3n(C(C)C)n2)cc(OC)c1OCCN1CCCCC1 [Compound 106] | > 3020 nM | 142 nM | 117 nM | 33.3 nM |  | > 1800 µM | Cytotox survival of A2780 cells after 3 days - pIC50 values (A2780 cells; A2780 cells, 3 days): 6.074
25 |  | CC(C)n1nc(-c2ccc(CN(C)CCO)cc2)nc2c(=O)n(C)c(=O)nc1-2 [Compound 111] |  |  |  |  |  | > 1800 µM | IC50 (AKT3 [1]; [8]): 791 nM; IC50 (CDK4; [9]): 126 nM; IC50 (AKT3 [2]; [10]): 161 nM; IC50 (CDC25B; [11]): 31 nM; IC50 (A2780 cells; [12]): 157 nM
26 |  | CC(C)n1nc(-c2ccc(CN(C)C3CCN(S(=O)(=O)N(C)C)CC3)cc2)nc2c(=O)n(C)c(=O)nc1-2 [Compound 113] | > 3020 nM | 151 nM | 184 nM | 119 nM | 220 nM | > 1800 µM | 
27 |  | Cn1c(=O)nc2n(C3CCCC3)nc(-c3ccc(CN4CCNCC4)cc3)nc-2c1=O [Compound 153] | 495 nM | 369 nM | 335 nM | 46 nM | 181 nM | > 1800 µM | 

Row | SMILES | melting point | IC50 (AKT3 [1]; [3]) | IC50 (CDK4; [4]) | IC50 (AKT3 [2]; [5]) | IC50 (CDC25B; [6]) | IC50 (A2780 cells; [7]) | solubility (physchem) | also measured
28 | COc1cc(-c2nc3c(=O)n(C)c(=O)nc-3n(C(C)C)n2)ccc1OCCN1CCCCC1 | 222 °C |  |  |  |  |  |  | 
